Assay results: patent US7087620B2, “Liquid pharmaceutical formulations containing 3,7-diazabicyclo[3,3,1]nonane compounds and methods of treatment relating to anti-arrhythmic events” (Solvay Pharmaceuticals GmbH, priority 2002, dated 2006)
“Also recorded” adds a separate entry of the source.

Assays:
healthy male subjects [1] = assay: Two step infusion study in healthy male subjects: pharmacodynamics (12-lead ECG: QT, QTc, heart rate); format: in vivo, human; conditions: for Pharmacodynamic action on QT, QTc interval and heart rate: over two hours post dosing
Protocol: (§1) A double-blind, placebo-controlled, randomized, single iv dose, two periods cross-over study to assess the safety, tolerability, pharmacodynamics and pharmacokinetics during and following a two step infusion of Tedisamil in healthy male subjects was performed with the following drug and dosages: Tedisamil dihydrochloride/0.4 mg/kg body weight infused over 30 minutes.
• 1. To assess safety and tolerability of tedisamil in healthy male subjects during and following a two step infusion scheme (0.4 mg/kg body weight infused over 30 minutes, with half of the dose infused over 10 minutes and half of the dose infused over the remaining 20 minutes). • 2. […] Methodology:
This was a single center, double-blind, placebo-controlled, randomized, single iv dose, two period cross-over study. Subjects were randomly allocated to either treatment sequence tedisamil-placebo or placebo-tedisamil. Number of patients (planned, screened, randomized and analyzed): Planned: 18, Screened: 27, Randomized: 18, Analyzed: 18 in PK/PD and safety analyses.
Subjects were included in the study only if they were healthy males, their age was in the range of 18-40 years (both inclusive), their body mass index (BMI) was between 18 kg/m^2 and 28 kg/m^2. Test product, dose and mode of administration: Tedisamil dihydrochloride; Strength: 2 mg/ml; Dose: 0.4 mg/kg body weight infused over 30 minutes, with half of the dose infused over 10 minutes and half of the dose infused over the remaining 20 minutes. Route: intravenous.
12-lead ECG.s were taken at several time points to explore the pharmacodynamic effects of Tedisamil (effects on QT and QTc) during and following infusion. The maximum value and maximum increase were derived for QTc and QT and the minimum value and maximum decrease were derived for heart rate. The AUC(0-24) and the maximum for the placebo-corrected QTc and QT and the AUC(0-24) and the minimum for the placebo-corrected heart rate were also calculated.
Descriptive statistics were performed for the ECG intervals QT, QTc, RR, PR, QRS and for heart rate by treatment (tedisamil, placebo and “tedisamil−placebo”) and time point. Individual and mean (arithmetic mean±1 SD) time profiles for ECG intervals and heart rate were graphically presented for both treatments.
Derived parameters, i.e. maximum value and maximum increase for QTc and QT, and minimum value and maximum decrease for heart rate were submitted to separate analyses of (co)variance (covariance only for maximum and minimum values) including subject, treatment, sequence, and period as class effects (and the individual pre-dose value as covariate). Point estimates and 95% confidence intervals were constructed for the difference “tedisamil−placebo” using the residual variance. Model assumptions were checked by visual inspection of residual plots. Additionally, descriptive statistics were calculated for the derived parameters per treatment and for the difference “tedisamil−placebo”.
Descriptive statistics for the placebo corrected AUC(0-24) of QTc, QT and heart rate and the placebo corrected maximum effect (maximum for QTc and QT and minimum for heart rate) were calculated. In addition, 95% confidence intervals were derived based on normally distributed outcomes.

healthy male subjects [2] = assay: Two step infusion study in healthy male subjects: safety and tolerability; format: in vivo, human; conditions: for Safety and tolerability: two step infusion of 0.4 mg tedisamil dihydrochloride per kg (0.32 mg/kg base)
Protocol: as §1
Screening assessments included physical examination, ECG, HIV/Hepatitis screening, blood pressure and heart rate measurements, clinical laboratory determinations, urine drug screen, alcohol breath test, and medical history. Follow-up assessments included physical examination, ECG, blood pressure and heart rate measurements, clinical laboratory determinations, and questions for adverse events and concomitant medication. During concomitant administration of Tedisamil, blood pressure, heart rate, and ECGs were recorded. Adverse events and concomitant medication were monitored throughout the study.
Subjects who received study medication, were considered valid for safety evaluation.
Treatment emergent adverse events, defined as any adverse event present at baseline that worsened or any event that began after treatment with study medication, were summarized by COSTART term for each treatment group. Each adverse event was evaluated for frequency of occurrence, duration, intensity, action taken, outcome, and relationship to administration of the study medication. Adverse events were listed for each subject.
Listings of abnormal or out of range values for each subject were presented for vital signs, laboratory assays, and physical examinations. Adverse events, blood pressure, heart rate and clinical laboratory data were analyzed descriptively and reviewed to evaluate the safety of all randomized subjects. Any clinical abnormalities were described.

[3] = 0.4 mg/kg tedisamil dihydrochloride iv, two step infusion over 30 minutes
[4] = difference tedisamil−placebo, analysis of covariance, 0.4 mg/kg iv two step infusion
[5] = difference tedisamil−placebo, analysis of variance, 0.4 mg/kg iv two step infusion
[6] = placebo-corrected, 0.4 mg/kg iv two step infusion

With C1CCC2(C1)C1CN(CC3CC3)CC2CN(CC2CC2)C1 [Tedisamil, N,N′-dicyclopropylmethyl-9,9-tetramethylene-3,7-diazabicyclo[3,3,1]nonane] the “Heart Rate Max. Decrease, Arith. Mean (SD)” value (healthy male subjects [1]; [3]) was 10.6 (3.8) bpm, the “Heart Rate Minimum, Arith. Mean (SD)” value (healthy male subjects [1]; [3]) was 49.2 (7.0) bpm and the “QT Interval Max. Increase, Arith. Mean (SD)” value (healthy male subjects [1]; [3]) was 76.0 (22.4) ms. For the same molecule, the “QT Interval Maximum, Arith. Mean (SD)” value (healthy male subjects [1]; [3]) was 474.2 (39.2) ms, the “QTc Interval Max. Increase, Arith. Mean (SD)” value (healthy male subjects [1]; [3]) was 61.1 (30.3) ms and the “QTc Interval Maximum, Arith. Mean (SD)” value (healthy male subjects [1]; [3]) was 455.9 (30.0) ms. The “Heart Rate Minimum, Estimate (Ted-Pla)” value (healthy male subjects [1]; [4]) was −4.01 bpm, the “QT Interval Maximum, Estimate (Ted-Pla)” value (healthy male subjects [1]; [4]) was 58.4 ms and the “QTc Interval Maximum, Estimate (Ted-Pla)” value (healthy male subjects [1]; [4]) was 34.0 ms. The “Heart Rate Max. Decrease, Estimate (Ted-Pla)” value (healthy male subjects [1]; [5]) was 4.22 bpm, the “QT Interval Max. Increase, Estimate (Ted-Pla)” value (healthy male subjects [1]; [5]) was 57.9 ms and the “QTc Interval Max. Increase, Estimate (Ted-Pla)” value (healthy male subjects [1]; [5]) was 34.1 ms. For the same molecule, the “Pharmacodynamic action on QT, QTc interval and heart rate” value (healthy male subjects [1]; two step infusion) was “a marked prolongation of QT and QTc interval and a distinct decrease in heart rate; also recorded: strong effect on QT, QTc and heart in the first two hours post dosing”, the “Pharmacodynamic action on QT, QTc interval and heart rate” value (healthy male subjects [1]; two step infusion, listed as TEDI) was “a prolongation of QT and QTc intervals and a distinct decrease in heart rate” and the “Placebo-corrected Heart Rate AUC(0-24), Mean (SD)” value (healthy male subjects [1]; [6]) was −13.5 (11.5) bpm. The “Placebo-corrected Heart Rate Minimum, Mean (SD)” value (healthy male subjects [1]; [6]) was −15.9 (6.0) bpm, the “Placebo-corrected QT Interval AUC(0-24), Mean (SD)” value (healthy male subjects [1]; [6]) was 112.9 (382.9) ms and the “Placebo-corrected QT Interval Maximum, Mean (SD)” value (healthy male subjects [1]; [6]) was 74.7 (36.7) ms. The “Placebo-corrected QTc Interval AUC(0-24), Mean (SD)” value (healthy male subjects [1]; [6]) was 28.5 (170.5) ms, the “Placebo-corrected QTc Interval Maximum, Mean (SD)” value (healthy male subjects [1]; [6]) was 63.9 (26.9) ms and the “Effect on AUC(0-24) values of QT, QTc and heart rate” value (healthy male subjects [1]; placebo-corrected, two step infusion) was “A significant effect of Tedisamil could not be found”. The “Adverse events (AEs)” value (healthy male subjects [2]; 0.4 mg/kg iv two step infusion, all judged probably related (injection site reaction, pain injection site, paresthesia)) was “six AEs were observed in five subjects”, the “Systolic and diastolic blood pressure change” value (healthy male subjects [2]; first four hours after dosing, 0.4 mg/kg iv two step infusion) was “small increase in the arithmetic mean of systolic and diastolic blood pressure” and the Pulse rate change (healthy male subjects [2]; first hour after dosing, 0.4 mg/kg iv two step infusion) was “decrease in pulse rate”. The Safety and tolerability (healthy male subjects [2]) was “safe and well tolerated” and the Safety and tolerability (healthy male subjects [2]; listed as TEDI) was “safe and well tolerated”.
